Experimental data from patent publication EP0326936A2, “Use of 2-(phenyl-amino)-2-imidazolines in the application of shock therapy” (BOEHRINGER INGELHEIM KG, priority 1988, dated 1989).

Legend:
hämorrhagischen Schock [1] = assay: Cremaster model of haemorrhagic shock (bleeding to 25 mm Hg, 10-minute isovolaemic i.v. infusion, 60-120 min observation); type: in vivo; details: Alinidin 1 mg/kg, N=6
Description: Die Eignung von Alinidin und anderen Verbindungen der allgemeinen Formel I zur erfindungsgemäßen Anwendung bei der Schocktherapie wurde in tierexperimentellen Untersuchungen an einem Cremaster-Modell bestätigt. Dieses Modell stellt eine etablierte Methode dar, (S. Hergenröder "Mikrozirkulation im hämorrhagischen Schock", Diplomarbeit am Fachbereich Biologie der Joh.-Gutenberg-Universität, Mainz 1987). An diesem Modell werden Einflüsse auf den systemischen Blutdruck, die Herzfrequenz, den daraus errechneten Schockindex sowie wichtige mikrozirkulatorische Parameter, wie Arteriolendurchmesser, die Eryhthrozytenfließgeschwindigkeit und die daraus errechnete Mikroperfusion (Organdurchblutung) und die Überlebensrate bestimmt. Der Versuchsablauf besteht aus einer präparativen Kontrollphase, gefolgt von einer spontanen Entblutung mit einem raschen Blutdruckabfall auf 25 mm Hg, einer isovolämischen intravenösen 10-minütigen Infusion mit physiologischer NaCl-Lösung (Kontrolltiere) bzw. physiologischer NaCl-Lösung mit darin gelösten Wirkstoffen und einer abschließenden Nachbeobachtungsphase (60 - 120 Minuten). Das zweite Modell unterscheidet sich durch eine zweitägige Nachbeobachtungsphase ohne Präparation des M. cremaster. […]

hämorrhagischen Schock [2] = assay: Second shock model: two-day observation phase, no preparation of the M. cremaster; type: in vivo; details: for Überlebende: number of survivors, N=15 per compound, Kontrolle 12 of 40
Description: Die Eignung von Alinidin und anderen Verbindungen der allgemeinen Formel I zur erfindungsgemäßen Anwendung bei der Schocktherapie wurde in tierexperimentellen Untersuchungen an einem Cremaster-Modell bestätigt. Dieses Modell stellt eine etablierte Methode dar, (S. Hergenröder "Mikrozirkulation im hämorrhagischen Schock", Diplomarbeit am Fachbereich Biologie der Joh.-Gutenberg-Universität, Mainz 1987). An diesem Modell werden Einflüsse auf den systemischen Blutdruck, die Herzfrequenz, den daraus errechneten Schockindex sowie wichtige mikrozirkulatorische Parameter, wie Arteriolendurchmesser, die Eryhthrozytenfließgeschwindigkeit und die daraus errechnete Mikroperfusion (Organdurchblutung) und die Überlebensrate bestimmt. Der Versuchsablauf besteht aus einer präparativen Kontrollphase, gefolgt von einer spontanen Entblutung mit einem raschen Blutdruckabfall auf 25 mm Hg, einer isovolämischen intravenösen 10-minütigen Infusion mit physiologischer NaCl-Lösung (Kontrolltiere) bzw. physiologischer NaCl-Lösung mit darin gelösten Wirkstoffen und einer abschließenden Nachbeobachtungsphase (60 - 120 Minuten). Das zweite Modell unterscheidet sich durch eine zweitägige Nachbeobachtungsphase ohne Präparation des M. cremaster.

Row | SMILES | Überlebensrate (hämorrhagischen Schock [1]; NaCl control group 4 of 20 animals surviving after 60 minutes) [%] | systemische, insbesondere mikrozirkulatorische Parameter (hämorrhagischen Schock [1]; effects in NaCl control group small and short-lived) | Überlebende (hämorrhagischen Schock [2]) | überlebten (Tiere) (hämorrhagischen Schock [2]; survivors out of 15 pretreated animals)
1 | C=CCN(C1=NCCN1)c1c(Cl)cccc1Cl [C, 2-[N-2,6-Dichlorphenyl-N-allylamino]imidazolin-(2)] | 100 | Erholung | 13 | 13
2 | CC#CCN(C1=NCCN1)c1c(Cl)cccc1Cl [B, 2-[N-2,6-Dichlorphenyl-N-2-butinylamino]imidazolin-(2)] | – | – | 10 | –
3 | CCc1cccc(CC)c1N=C1NCCN1 [A, 2-[2,6-Diethylphenylimino]imidazolidin] | – | – | 10 | –
